Patent US11491162B2, “Combination of quinoline-4-carboxamides and benzonaphthyridine derivatives as antimalarial drug combination” (Merck Patent GmbH, priority 2018, dated 2022)
Several values for one entry are separate records, joined by “and”; a condition that tells them apart may be missing. Identical values can stand only once. Counter-ions that a name gives are not always drawn. Like-named read-outs stand apart in the source and are kept apart here.

Key:
[1] = system: P. falciparum Pf3D7^0087/N9; assay: In vivo SCID mouse model, oral therapeutic efficacy; set-up: species or system Plasmodium falciparum; conditions: for % control: day 7; for Activity: day 7 vs untreated control, succinate salt
Protocol: Compound efficacy was assessed against the Plasmodium falciparum strain Pf3D7^0087/N9 in vivo. Mice are infected intravenously with parasitized red blood cells on day 0. Experimental mice are generally treated at day 3, 4, 5, and 6 post-infection with an oral dose of the compound (single or 4-day oral dosing regimen) and are compared to an infected control group for reduction in parasitemia on day 7 (Maria Belen Jimenez-Díaz, Teresa Mulet, Sara Viera, Vanessa Gomez, Helen Garuti, Javier Ibanez, Angela Alvarez-Doval, Leonard D. Shultz, Antonio Martínez, Domingo Gargallo-Viola, and Inigo Angulo-Barturen, Improved Murine Model of Malaria Using Plasmodium falciparum Competent Strains and Non-Myelodepleted NOD-scid IL2Rgammanull Mice Engrafted with Human Erythrocytes, Antimicrob Agents Chemother. 2009, 53:4533).
PYRO and M1 were solubilized in a vehicle consisting of 70% Tween-80 and 30% ethanol, followed by a 10-fold dilution in H2O.

[2] = In vitro permeability in Caco-2 cells; assay type: in vitro ADME; conditions: human
Protocol: (§1) Caco-2 cells are maintained in DMEM in an atmosphere of 8.5% CO2. For transport experiments 0.125×10^6 cells/well of are seeded on polycarbonate filter inserts and are allowed to grow and differentiate for 14±1 days before the cell monolayers are used for experiments. Drug transport experiments are carried out using a cocktail approach in a four-dimensional setting. […] […] The assays are performed in HBSS containing 25 mM HEPES (pH 7.4) in an atmosphere of 5% CO2 at 37° C. Prior to the study, the monolayers are washed in pre-warmed HBSS. At the start of the experiments pre-warmed HBSS containing the test items is added to the donor side of the monolayer and HBSS without test items is added to the receiver side. The plates are shaken at 150 rpm at 37° C. during the experiment. After 2 h the Transwell insert containing the monolayer is carefully removed and placed in a new plate and aliquots of both the receiver and donor sides were taken and diluted with an equal volume of acetonitrile containing the internal standard. The mixture is centrifuged and supernatant analyzed by LC-MS/MS. The apparent permeability coefficients (Papp) are calculated using the formula: Papp=[Vrec/(A×C0,donor)](dCrec/dt)×10^6 with dCrev/dt being the change in concentration in the receiver compartment with time, Vrec the volume of the sample in the receiver compartment, C0, donor the concentration in the donor compartment at time 0, and A the area of the compartment with the cells.

[3] = system: Caco-2 cells; assay: In vitro permeability in Caco-2 cells; assay type: in vitro ADME; conditions: pH 7.4/7.4, Table 8
Protocol: as §1

[4] = M1 4 × 0.2 MG/KG oral, SCID mice, Table 3
[5] = M1 4 × 0.4 MG/KG oral, SCID mice, Table 3
[6] = M1 4 × 0.6 MG/KG oral, SCID mice, Table 3
[7] = M1 4 × 1.2 MG/KG oral, SCID mice, Table 3
[8] = Table 4 entry 2: M1 4 × 1.2 mg/kg, PYRO 0 mg/kg, oral

O=C(NCCN1CCCC1)c1cc(-c2ccc(CN3CCOCC3)cc2)nc2ccc(F)cc12 [M1, 6-fluoro-2-(4-morpholin-4-ylmethyl-phenyl)-quinoline-4-carboxylic acid (2-pyrrolidin-1-yl-ethyl)amide succinate salt]
% PARASITEMIA day 3 post infection [1, 4]: 0.85%
% PARASITEMIA day 4 post infection [1, 4]: 1.33%
% PARASITEMIA day 5 post infection [1, 4]: 3.10%
% PARASITEMIA day 6 post infection [1, 4]: 3.35%
% PARASITEMIA day 7 post infection [1, 4]: 6.55%
% control ([1]; M1 4 × 0.2 MG/KG oral, SCID mice): 71.7%
Activity ([1]; M1 4 × 0.2 MG/KG oral, SCID mice, 0.2 mg/kg): 28.3%
% PARASITEMIA day 3 post infection [1, 5]: 0.70%
% PARASITEMIA day 4 post infection [1, 5]: 1.38%
% PARASITEMIA day 5 post infection [1, 5]: 1.18%
% PARASITEMIA day 6 post infection [1, 5]: 0.75%
% PARASITEMIA day 7 post infection [1, 5]: 0.55%
% control ([1]; M1 4 × 0.4 MG/KG oral, SCID mice): 6.0%
Activity ([1]; M1 4 × 0.4 MG/KG oral, SCID mice, 0.4 mg/kg): 94.9% and 94.0%
% PARASITEMIA day 3 post infection [1, 6]: 0.63%
% PARASITEMIA day 4 post infection [1, 6]: 0.70%
% PARASITEMIA day 5 post infection [1, 6]: 0.60%
% PARASITEMIA day 6 post infection [1, 6]: 0.13%
% PARASITEMIA day 7 post infection [1, 6]: 0.03%
% control ([1]; M1 4 × 0.6 MG/KG oral, SCID mice): 0.3%
Activity ([1]; M1 4 × 0.6 MG/KG oral, SCID mice, 0.6 mg/kg): 99.7%
% PARASITEMIA day 3 post infection [1, 7]: 0.50%
% PARASITEMIA day 4 post infection [1, 7]: 0.75%
% PARASITEMIA day 5 post infection [1, 7]: 0.43%
% PARASITEMIA day 6 post infection [1, 7]: 0.05%
% PARASITEMIA day 7 post infection ([1]; M1 4 × 1.2 MG/KG oral, SCID mice, Table 3, LLQ = <0.01% parasitemia): <LLQ
% control ([1]; M1 4 × 1.2 MG/KG oral, SCID mice, LLQ = <0.01% parasitemia): <LLQ
Activity ([1]; M1 4 × 1.2 MG/KG oral, SCID mice, 1.2 mg/kg): 100%
ED90 ([1]; M1, 4-day oral dosing, SCID mice, dose as free base): 0.37 mg/kg
% PARASITEMIA day 3 post infection [1, 8]: 0.99%
% PARASITEMIA day 4 post infection [1, 8]: 1.04%
% PARASITEMIA day 5 post infection [1, 8]: 0.7%
% PARASITEMIA day 6 post infection [1, 8]: 0.12%
% PARASITEMIA day 7 post infection [1, 8]: 0.01%
% PARASITEMIA day 10 post infection ([1]; Table 4 entry 2: M1 4 × 1.2 mg/kg, PYRO 0 mg/kg, oral, LLQ = <0.01% parasitemia): <LLQ
efflux ratio at 2 h, 1 μM ([2]; Caco-2, pH 7.4, PYRO 0 μM, pH 7.4/7.4, Table 8): 15.4
efflux ratio at 2 h, 1 μM ([2]; Caco-2, pH 7.4, no P-gp inhibitor, pH 7.4/7.4, Table 7): 18.2
recovery at 2 h, 1 μM ([2]; Caco-2, pH 7.4, no P-gp inhibitor, pH 7.4/7.4, Table 7, read-out: RECOVERY apical to basolateral (A-B)): 79.8%
recovery at 2 h, 1 μM ([2]; Caco-2, pH 7.4, no P-gp inhibitor, pH 7.4/7.4, Table 7, read-out: RECOVERY basolateral to apical (B-A)): 65.4%
recovery at 2 h, 1 μM ([2]; Caco-2, pH 7.4, with Cyclosporine A 10 μM, with Cyclosporine A 10 μM, pH 7.4/7.4, Table 7, read-out: RECOVERY apical to basolateral (A-B)): 72.5%
recovery at 2 h, 1 μM ([2]; Caco-2, pH 7.4, with Cyclosporine A 10 μM, with Cyclosporine A 10 μM, pH 7.4/7.4, Table 7, read-out: RECOVERY basolateral to apical (B-A)): 86.3%
efflux ratio at 2 h, 1 μM ([2]; Caco-2, pH 7.4, with PYRO 0.3 μM, PYRO 0.3 μM, pH 7.4/7.4, Table 8): 10.1
efflux ratio at 2 h, 1 μM ([2]; Caco-2, pH 7.4, with PYRO 1 μM, PYRO 1 μM, pH 7.4/7.4, Table 8): 14.5
efflux ratio at 2 h, 1 μM ([2]; Caco-2, pH 7.4, with PYRO 3 μM, PYRO 3 μM, pH 7.4/7.4, Table 8): 10.2
efflux ratio at 2 h, 1 μM ([2]; Caco-2, pH 7.4, with PYRO 10 μM, PYRO 10 μM, pH 7.4/7.4, Table 8): 11
efflux ratio at 2 h, 1 μM ([2]; Caco-2, pH 7.4, with PYRO 30 μM, PYRO 30 μM, pH 7.4/7.4, Table 8): 5.06
efflux ratio at 2 h, 1 μM ([2]; Caco-2, pH 7.4, with PYRO 100 μM, PYRO 100 μM, pH 7.4/7.4, Table 8): 2.42
Papp at 2 h, 1 μM ([2]; Caco-2, with PYRO 0.3 μM, PYRO 0.3 μM, pH 7.4/7.4, Table 8): 9.74 ×10⁻⁶ cm/s
Papp A→B at 2 h, 1 μM ([2]; Caco-2, with PYRO 0.3 μM, PYRO 0.3 μM, pH 7.4/7.4, Table 8, read-out: PAPP (A-B)): 3.07 ×10⁻⁶ cm/s
Papp at 2 h, 1 μM ([2]; Caco-2, with PYRO 1 μM, PYRO 1 μM, pH 7.4/7.4, Table 8): 8.25 ×10⁻⁶ cm/s
Papp A→B at 2 h, 1 μM ([2]; Caco-2, with PYRO 1 μM, PYRO 1 μM, pH 7.4/7.4, Table 8, read-out: PAPP (A-B)): 2.17 ×10⁻⁶ cm/s
Papp B→A at 2 h, 1 μM ([2]; Caco-2, with PYRO 1 μM, PYRO 1 μM, pH 7.4/7.4, Table 8, read-out: PAPP (B-A)): 31.4 ×10⁻⁶ cm/s
Papp at 2 h, 1 μM ([2]; Caco-2, with PYRO 3 μM, PYRO 3 μM, pH 7.4/7.4, Table 8): 12.3 ×10⁻⁶ cm/s
Papp A→B at 2 h, 1 μM ([2]; Caco-2, with PYRO 3 μM, PYRO 3 μM, pH 7.4/7.4, Table 8, read-out: PAPP (A-B)): 3.85 ×10⁻⁶ cm/s
Papp B→A at 2 h, 1 μM ([2]; Caco-2, with PYRO 3 μM, PYRO 3 μM, pH 7.4/7.4, Table 8, read-out: PAPP (B-A)): 39.1 ×10⁻⁶ cm/s
Papp at 2 h, 1 μM ([2]; Caco-2, with PYRO 10 μM, PYRO 10 μM, pH 7.4/7.4, Table 8): 11.3 ×10⁻⁶ cm/s
Papp A→B at 2 h, 1 μM ([2]; Caco-2, with PYRO 10 μM, PYRO 10 μM, pH 7.4/7.4, Table 8, read-out: PAPP (A-B)): 3.42 ×10⁻⁶ cm/s
Papp B→A at 2 h, 1 μM ([2]; Caco-2, with PYRO 10 μM, PYRO 10 μM, pH 7.4/7.4, Table 8, read-out: PAPP (B-A)): 37.6 ×10⁻⁶ cm/s
Papp at 2 h, 1 μM ([2]; Caco-2, with PYRO 30 μM, PYRO 30 μM, pH 7.4/7.4, Table 8): 16.4 ×10⁻⁶ cm/s
Papp A→B at 2 h, 1 μM ([2]; Caco-2, with PYRO 30 μM, PYRO 30 μM, pH 7.4/7.4, Table 8, read-out: PAPP (A-B)): 7.29 ×10⁻⁶ cm/s
Papp B→A at 2 h, 1 μM ([2]; Caco-2, with PYRO 30 μM, PYRO 30 μM, pH 7.4/7.4, Table 8, read-out: PAPP (B-A)): 36.9 ×10⁻⁶ cm/s
Papp at 2 h, 1 μM ([2]; Caco-2, with PYRO 100 μM, PYRO 100 μM, pH 7.4/7.4, Table 8): 30 ×10⁻⁶ cm/s
Papp A→B at 2 h, 1 μM ([2]; Caco-2, with PYRO 100 μM, PYRO 100 μM, pH 7.4/7.4, Table 8, read-out: PAPP (A-B)): 19.3 ×10⁻⁶ cm/s
Papp B→A at 2 h, 1 μM ([2]; Caco-2, with PYRO 100 μM, PYRO 100 μM, pH 7.4/7.4, Table 8, read-out: PAPP (B-A)): 46.7 ×10⁻⁶ cm/s
Papp at 2 h, 1 μM ([2]; Caco-2, with none (PYRO 0 μM), PYRO 0 μM, pH 7.4/7.4, Table 8): 7.8 ×10⁻⁶ cm/s
Papp A→B at 2 h, 1 μM ([2]; Caco-2, with none (PYRO 0 μM), PYRO 0 μM, pH 7.4/7.4, Table 8, read-out: PAPP (A-B)): 2 ×10⁻⁶ cm/s
Papp B→A at 2 h, 1 μM ([2]; Caco-2, with none (PYRO 0 μM), PYRO 0 μM, pH 7.4/7.4, Table 8, read-out: PAPP (B-A)): 30.6 ×10⁻⁶ cm/s
Papp A→B at 2 h, 1 μM ([2]; Caco-2, with none (no P-gp inhibitor), no P-gp inhibitor, pH 7.4/7.4, Table 7, read-out: PAPP apical to basolateral (A-B)): 2.97 ×10⁻⁶ cm/s
Papp B→A at 2 h, 1 μM ([2]; Caco-2, with none (no P-gp inhibitor), no P-gp inhibitor, pH 7.4/7.4, Table 7, read-out: PAPP basolateral to apical (B-A)): 54.2 ×10⁻⁶ cm/s
PAPP (A-B) ([3]; PYRO 0 μM): 2.00 10E−6 CM/S
PAPP (B-A) ([3]; PYRO 0.3 μM): 30.90 10E−6 CM/S
PAPP (A-B) ([3]; PYRO 100 μM): 19.3 10E−6 CM/S
